From patent publication US10189841B2, “Purinones as ubiquitin-specific protease 1 inhibitors” (Forma Therapeutics, Inc., priority 2015, dated 2019)

Each compound was assayed against USP1 (construct USP1 (I-785, GG670, 671AA)/UAF1 (I-677)-Flag) (Homo sapiens (Human), UniProt O94782, G670A/G671A) (assay: Ubiquitin-Rhodamine 110 assay for USP1 activity). Conditions: USP1/UAF1 25 pM, Ub-Rh110 25 nM, 30 min preincubation.
USP1 (construct USP1 (I-785, GG670, 671AA)/UAF1 (I-677)-Flag), sequence (O94782 whole entry G670A/G671A): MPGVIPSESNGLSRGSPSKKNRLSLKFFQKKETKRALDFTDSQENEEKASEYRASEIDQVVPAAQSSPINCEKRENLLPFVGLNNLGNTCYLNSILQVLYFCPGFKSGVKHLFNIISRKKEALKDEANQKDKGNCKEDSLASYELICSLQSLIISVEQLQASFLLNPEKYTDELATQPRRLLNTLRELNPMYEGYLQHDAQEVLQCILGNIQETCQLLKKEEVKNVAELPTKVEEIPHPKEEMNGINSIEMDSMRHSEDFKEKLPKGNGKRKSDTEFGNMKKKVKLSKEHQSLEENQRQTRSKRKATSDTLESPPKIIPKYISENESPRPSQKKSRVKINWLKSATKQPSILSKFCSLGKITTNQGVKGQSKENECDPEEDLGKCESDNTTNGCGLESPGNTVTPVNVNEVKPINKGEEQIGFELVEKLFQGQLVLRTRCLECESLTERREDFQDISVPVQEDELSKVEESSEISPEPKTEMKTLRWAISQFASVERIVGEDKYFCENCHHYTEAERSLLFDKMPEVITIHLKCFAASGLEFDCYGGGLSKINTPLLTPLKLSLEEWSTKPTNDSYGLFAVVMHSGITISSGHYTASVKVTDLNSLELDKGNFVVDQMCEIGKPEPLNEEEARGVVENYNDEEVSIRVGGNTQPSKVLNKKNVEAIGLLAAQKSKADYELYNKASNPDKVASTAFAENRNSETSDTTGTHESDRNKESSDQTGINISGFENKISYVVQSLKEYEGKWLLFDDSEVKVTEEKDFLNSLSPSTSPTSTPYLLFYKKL
USP1 (construct USP1 (I-785, GG670, 671AA)/UAF1 (I-677)-Flag), sequence (Q8TAF3 whole entry partner): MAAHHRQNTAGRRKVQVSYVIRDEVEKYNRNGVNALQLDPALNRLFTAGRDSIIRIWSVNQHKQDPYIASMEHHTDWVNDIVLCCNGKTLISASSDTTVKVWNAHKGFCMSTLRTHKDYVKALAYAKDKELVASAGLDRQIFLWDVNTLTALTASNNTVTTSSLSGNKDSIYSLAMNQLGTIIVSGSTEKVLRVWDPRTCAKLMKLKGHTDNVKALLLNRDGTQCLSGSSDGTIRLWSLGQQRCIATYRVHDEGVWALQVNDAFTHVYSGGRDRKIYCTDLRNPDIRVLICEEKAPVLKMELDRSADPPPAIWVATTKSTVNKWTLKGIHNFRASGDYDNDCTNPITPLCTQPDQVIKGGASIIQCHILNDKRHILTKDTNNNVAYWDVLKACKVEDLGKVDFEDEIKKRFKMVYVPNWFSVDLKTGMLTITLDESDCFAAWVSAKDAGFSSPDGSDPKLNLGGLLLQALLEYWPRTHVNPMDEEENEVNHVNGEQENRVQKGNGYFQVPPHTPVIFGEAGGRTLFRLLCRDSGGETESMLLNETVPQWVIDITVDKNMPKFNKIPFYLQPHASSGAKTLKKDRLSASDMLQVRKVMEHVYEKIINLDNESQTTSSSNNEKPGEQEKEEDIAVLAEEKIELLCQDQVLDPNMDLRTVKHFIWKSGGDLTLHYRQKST
Assay type: biochemical
Description: Example 53: Ubitquin-Rhodamine 110 Assay for USP1 Activity
The HTS assay was performed in a final volume of 20 μL in assay buffer containing 20 mM Tris-HCl (pH 8.0, (1M Tris-HCl, pH 8.0 solution; Corning 46-031-CM)), 2 mM CaCl2 (1M Calcium Chloride solution; Sigma #21114) 1 mM GSH (L-Glutathione reduced; Sigma #G4251), 0.01% Prionex ([…] filtered, Sigma #G-0411), and 0.01% Triton X-100. Stock compound solutions were stored at −20° C. as 10 mM in DMSO. Up to 1 month prior to the assay, 2 mM test compounds were pre-dispensed into assay plates (Black, low volume; Corning #3820) and frozen at −20° C. Prestamped assay plates were allowed to come to room temperature on the day of the assay. For the screen, 100 nL of 2 mM was pre-dispensed for a final screening concentration of […] (DMSO(fc)=0.5%). The final concentration of the enzyme (USP1, construct USP1 (I-785, GG670, 671AA)/UAF1 (I-677)-Flag; Viva) in the assay was 100 pM. Final substrate (Ub-Rh110; Ubiquitin-Rhodamine 110, R&D Systems #U-555) concentration was 25 nM with [Ub-Rh110]<<Km. […] Plates were incubated stacked for 45 minutes at room temperature before fluorescence was read on the Envision (Excitation at 485 nm and Emission at 535 nm; Perkin Elmer) or on the PheraSTAR (Excitation at 485 nm and Emission at 535 nm; BMG Labtech)
Nanoliter quantities of either an 8-point or 10-point, 3-fold serial dilution in DMSO was pre-dispensed into assay plates (Perkin Elmer, ProxiPlate-384 F Plus, #6008269) for a final test concentration range of either 25 μM to 11 nM or 25 μM to 1.3 nM, respectively. The final concentration of the enzyme (USP1, construct USP1 (I-785, GG670, 671AA)/UAF1 (I-677)-Flag; Viva) in the assay was 25 pM. Final substrate (Ub-Rh110; Ubiquitin-Rhodamine 110, R&D Systems #U-555) concentration was 25 nM with [Ub-Rh110]<<Km. […] Plates were incubated stacked for 20 minutes at room temperature before 5 μL of stop solution (final concentration of 10 mM citric acid in assay buffer (Sigma, #251275-500G)). Fluorescence was read on the Envision (Excitation at 485 nm and Emission at 535 nm; Perkin Elmer) or on the PheraSTAR (Excitation at 485 nm and Emission at 535 nm; BMG Labtech).
For both assay formats data were reported as percent inhibition compared with control wells based on the following equation: % inh=[1−((FLU−AveLow)/(AveHigh−AveLow))]×100 where FLU=measured Fluorescence, AveLow=average Fluorescence of no enzyme control (n=16), and AveHigh=average Fluorescence of DMSO control (n=16). IC50 values were determined by curve fitting of the standard 4 parameter logistic fitting algorithm included in the Activity Base software package: IDBS XE Designer Model205. Data is fitted using the Levenburg Marquardt algorithm.
In the case of CC(C)c1ccccc1-c1ncc2[nH]c(=O)n([C@H](C)c3ccc(-n4cccn4)cc3)c2n1 (single isomer, unassigned) [Compound I-158], the IC50 is reported as less than 50 nM.
Work on CC(C)c1ccccc1-c1ncc2[nH]c(=O)n(Cc3ccc(-n4ccc([C@H]5CCCNC5)n4)cc3)c2n1 (single isomer, unassigned) [Compound I-225] yielded an IC50 of 50 to 200 nM.
For Cc1cc(C)n(-c2ccc(Cn3c(=O)[nH]c4cnc(-c5ccccc5C(C)C)nc43)cc2)n1 [Compound I-1, 9-(4-(3,5-Dimethyl-1H-pyrazol-1-yl)benzyl)-2-(2-isopropylphenyl)-7,9-dihydro-8H-purin-8-one], the IC50 was less than 50 nM.
CC(C)c1ncccc1-c1ncc2[nH]c(=O)n(Cc3ccc(-n4nccn4)cc3)c2n1 [Compound I-3, 9-(4-(2H-1,2,3-triazol-2-yl)benzyl)-2-(2-isopropylpyridin-3-yl)-7,9-dihydro-8H-purin-8-one] was tested, and the IC50 was 200 to 2000 nM.
O=c1[nH]c2cnc(-c3cccnc3OC(F)F)nc2n1Cc1ccc(-n2nccn2)cc1 [Compound I-4, 9-(4-(2H-1,2,3-triazol-2-yl)benzyl)-2-(2-(difluoromethoxy)pyridin-3-yl)-7,9-dihydro-8H-purin-8-one] was tested, and the IC50 was greater than 2000 nM.
CC(C)COc1ncccc1-c1ncc2[nH]c(=O)n(Cc3ccc(-n4nccn4)cc3)c2n1 [Compound I-5, 9-(4-(2H-1,2,3-triazol-2-yl)benzyl)-2-(2-isobutoxypyridin-3-yl)-7,9-dihydro-8H-purin-8-one] gave an IC50 greater than 2000 nM.
Compound CC(C)c1ccccc1-c1ncc2c(n1)n(Cc1ccc(-n3cccn3)cc1)c(=O)n2C [Compound I-6, 9-(4-(1H-pyrazol-1-yl)benzyl)-2-(2-isopropylphenyl)-7-methyl-7,9-dihydro-8H-purin-8-one] has an IC50 of 50 to 200 nM.
CC(C)c1ncccc1-c1ncc2c(n1)n(Cc1ccc(-n3cccn3)cc1)c(=O)n2C [Compound I-7, 9-(4-(1H-pyrazol-1-yl)benzyl)-2-(2-isopropylpyridin-3-yl)-7-methyl-7,9-dihydro-8H-purin-8-one] was tested, and the IC50 was 200 to 2000 nM.
Compound CC(C)c1c(F)cccc1-c1ncc2c(n1)n(Cc1ccc(-n3cccn3)cc1)c(=O)n2C [Compound I-8, 9-(4-(1H-pyrazol-1-yl)benzyl)-2-(3-fluoro-2-isopropylphenyl)-7-methyl-7,9-dihydro-8H-purin-8-one] has an IC50 of less than 50 nM.
CC(C)c1ccc(F)cc1-c1ncc2c(n1)n(Cc1ccc(-n3cccn3)cc1)c(=O)n2C [Compound I-9, 9-(4-(1H-pyrazol-1-yl)benzyl)-2-(5-fluoro-2-isopropylphenyl)-7-methyl-7,9-dihydro-8H-purin-8-one] was tested, and the IC50 was 200 to 2000 nM.
CC(C)c1cc(F)ccc1-c1ncc2c(n1)n(Cc1ccc(-n3cccn3)cc1)c(=O)n2C [Compound I-10, 9-(4-(1H-pyrazol-1-yl)benzyl)-2-(4-fluoro-2-isopropylphenyl)-7-methyl-7,9-dihydro-8H-purin-8-one] gave an IC50 of 200 to 2000 nM.
Compound CC(C)c1cccc(F)c1-c1ncc2c(n1)n(Cc1ccc(-n3cccn3)cc1)c(=O)n2C [Compound I-11, 9-(4-(1H-pyrazol-1-yl)benzyl)-2-(2-fluoro-6-isopropylphenyl)-7-methyl-7,9-dihydro-8H-purin-8-one] has an IC50 of less than 50 nM.
CC(C)c1ncccc1-c1ncc2[nH]c(=O)n([C@@H](C)c3ccc(-n4cccn4)cc3)c2n1 [Compound I-13, (S)-9-(1-(4-(1H-pyrazol-1-yl)phenyl)ethyl)-2-(2-isopropylpyridin-3-yl)-7,9-dihydro-8H-purin-8-one] gave an IC50 of 200 to 2000 nM.
For CC(C)c1ncccc1-c1ncc2[nH]c(=O)n([C@H](C)c3ccc(-n4cccn4)cc3)c2n1 [Compound I-14, (R)-9-(1-(4-(1H-pyrazol-1-yl)phenyl)ethyl)-2-(2-isopropylpyridin-3-yl)-7,9-dihydro-8H-purin-8-one], the IC50 was 50 to 200 nM.
For CC(C)Oc1cc(F)ccc1-c1ncc2[nH]c(=O)n(Cc3ccc(-n4nccn4)cc3)c2n1 [Compound I-15, 9-(4-(2H-1,2,3-triazol-2-yl)benzyl)-2-(4-fluoro-2-isopropoxyphenyl)-7,9-dihydro-8H-purin-8-one], the IC50 was greater than 2000 nM.
COc1c(F)cccc1-c1ncc2[nH]c(=O)n(Cc3ccc(-n4nccn4)cc3)c2n1 [Compound I-16, 9-(4-(2H-1,2,3-triazol-2-yl)benzyl)-2-(3-fluoro-2-methoxyphenyl)-7,9-dihydro-8H-purin-8-one] was tested, and the IC50 was greater than 2000 nM.
CC(C)c1ccncc1-c1ncc2c(n1)n(Cc1ccc(-n3cccn3)cc1)c(=O)n2C [Compound I-17, 9-(4-(1H-pyrazol-1-yl)benzyl)-2-(4-isopropylpyridin-3-yl)-7-methyl-7,9-dihydro-8H-purin-8-one] showed an IC50 greater than 2000 nM.
In the case of O=c1[nH]c2cnc(-c3cccnc3OCC(F)(F)F)nc2n1Cc1ccc(-n2cccn2)cc1 [Compound I-18, 9-(4-(1H-pyrazol-1-yl)benzyl)-2-(2-(2,2,2-trifluoroethoxy)pyridin-3-yl)-7,9-dihydro-8H-purin-8-one], the IC50 is reported as 200 to 2000 nM.
CCOc1ncccc1-c1ncc2[nH]c(=O)n(Cc3ccc(-n4cccn4)cc3)c2n1 [Compound I-19, 9-(4-(1H-pyrazol-1-yl)benzyl)-2-(2-ethoxypyridin-3-yl)-7,9-dihydro-8H-purin-8-one] was tested, and the IC50 was 200 to 2000 nM.
COCCOc1ccccc1-c1ncc2[nH]c(=O)n(Cc3ccc(-n4cccn4)cc3)c2n1 [Compound I-20, 9-(4-(1H-pyrazol-1-yl)benzyl)-2-(2-(2-methoxyethoxy)phenyl)-7,9-dihydro-8H-purin-8-one] gave an IC50 of 200 to 2000 nM.
CCCOc1ccccc1-c1ncc2[nH]c(=O)n(Cc3ccc(-n4cccn4)cc3)c2n1 [Compound I-21, 9-(4-(1H-pyrazol-1-yl)benzyl)-2-(2-propoxyphenyl)-7,9-dihydro-8H-purin-8-one] was tested, and the IC50 was 50 to 200 nM.
Work on O=c1[nH]c2cnc(-c3ccccc3OCC(F)(F)F)nc2n1Cc1ccc(-n2cccn2)cc1 [Compound I-22, 9-(4-(1H-pyrazol-1-yl)benzyl)-2-(2-(2,2,2-trifluoroethoxy)phenyl)-7,9-dihydro-8H-purin-8-one] yielded an IC50 of 200 to 2000 nM.
Compound O=c1[nH]c2cnc(-c3ccccc3OCC3CC3)nc2n1Cc1ccc(-n2cccn2)cc1 [Compound I-23, 9-(4-(1H-pyrazol-1-yl)benzyl)-2-(2-(cyclopropylmethoxy)phenyl)-7,9-dihydro-8H-purin-8-one] has an IC50 of 50 to 200 nM.
Work on O=c1[nH]c2cnc(-c3cccnc3OCC(F)(F)F)nc2n1[C@@H]1CC[C@H]1c1ccc(-n2cccn2)cc1 [Compound I-24, 9-((1R,2S)-2-(4-(1H-pyrazol-1-yl)phenyl)cyclobutyl)-2-(2-(2,2,2-trifluoroethoxy)pyridin-3-yl)-7,9-dihydro-8H-purin-8-one] yielded an IC50 of 50 to 200 nM.
Compound O=c1[nH]c2cnc(-c3cccc4c3OC(F)(F)O4)nc2n1Cc1ccc(-n2cccn2)cc1 [Compound I-25, 9-(4-(1H-pyrazol-1-yl)benzyl)-2-(2,2-difluorobenzo[d][1,3]dioxol-4-yl)-7,9-dihydro-8H-purin-8-one] has an IC50 of 50 to 200 nM.
Cn1cc(C(F)(F)F)nc1-c1ccc(Cn2c(=O)[nH]c3cnc(-c4cccnc4OCC(F)(F)F)nc32)cc1 [Compound I-26, 9-(4-(1-methyl-4-(trifluoromethyl)-1H-imidazol-2-yl)benzyl)-2-(2-(2,2,2-trifluoroethoxy)pyridin-3-yl)-7,9-dihydro-8H-purin-8-one] was tested, and the IC50 was less than 50 nM.
CCc1ccccc1-c1ncc2[nH]c(=O)n(Cc3ccc(-n4cccn4)cc3)c2n1 [Compound I-27, 9-(4-(1H-pyrazol-1-yl)benzyl)-2-(2-ethylphenyl)-7,9-dihydro-8H-purin-8-one] gave an IC50 of 50 to 200 nM.
Compound Cn1ccc2cccc(-c3ncc4[nH]c(=O)n(Cc5ccc(-n6cccn6)cc5)c4n3)c21 [Compound I-29, 9-(4-(1H-pyrazol-1-yl)benzyl)-2-(1-methyl-1H-indol-7-yl)-7,9-dihydro-8H-purin-8-one] has an IC50 of 200 to 2000 nM.
Cn1cc(C(F)(F)F)nc1-c1ccc(Cn2c(=O)[nH]c3cnc(-c4cccnc4C4CC4)nc32)cc1 [Compound I-30, 2-(2-cyclopropylpyridin-3-yl)-9-(4-(1-methyl-4-(trifluoromethyl)-1H-imidazol-2-yl)benzyl)-7,9-dihydro-8H-purin-8-one] gave an IC50 of less than 50 nM.
